Key:
PDE4 = assay: Inhibition of PDE4 activity, two-step procedure and Lineweaver-Burk analysis; format: biochemical, guinea pig
Procedure: (§1) Activities of PDE1~5 in the homogenate of guinea pig lungs or hearts were measured by a two-step procedure according to the previous method, using cAMP with [^3H]-cAMP or cGMP with [^3H]-cGMP as substrates. […] The reagents and homogenate were mixed on ice, and the reaction was initiated by transferring the mixture to a water bath at 37°C. Following a 30-min incubation, the reaction was stopped by transferring the reaction vessel to a bath of boiling water for 3 min. After cooling on ice, 20 μl of a 1 mg/ml solution of Crotalus atrox snake venom was added to the reaction mixture, and the mixture was incubated at 37°C for 10 min. Unreacted [^3H]-cAMP or [^3H]-cGMP was removed by the addition of 500 μl of a 1-in-1 Tris-HCl (40 mM) buffer suspension of Dowex resin (1 × 8-200) with incubation on ice for 30 min. Each tube was then centrifuged at 3700 g for 2 min, and 150 μl of the supernatant was removed for liquid scintillation counting. […] The total protein in each fraction used was assayed according to a previous method. PDE activities are reported as nmol/mg/min.

PDE5 = assay: Inhibition of PDE5 activity, two-step procedure; format: biochemical; settings: homogenate of guinea pig lungs or hearts
Procedure: as §1

[1] = tested on: total IgG2a, total and OVA-specific IgE; assay: IgE and IgG2a levels in serum and BALF of sensitized and challenged mice (ELISA); format: in vivo, BABL/c mice; settings: 3~30 μmol/kg p.o.
Procedure: According to the schedule (Figure 1), ten female BABL/c mice in each group were sensitized by an intraperitoneal (i.p.) injection of 20 μg of OVA emulsified in 2.25 mg of an aluminum hydroxide gel, prepared from aluminum sulfate hexadecahydrate, in a total volume of 100 μl on days 0 and 14. On day 21, these mice were injected with (i.p.) 100 μl of a mixture of 1% OVA and Freund's complete adjuvant (1:1). Mice were challenged via the airway using 1% OVA in saline for 30 min on days 28, 29, and 30 by ultrasonic nebulization. After the last of OVA challenges, AHR was assessed on day 32 (48 h after 1% OVA provocation) in each group. Each group of mice was orally (p.o.) administered the vehicle (control) or 3~30 μmol/kg of HDME 2 h before and 6 and 24 h after OVA provocation. For comparison, sham-treated mice were challenged with saline instead of 1% OVA (non-challenged). […] AHR was assessed using two methods: (1) in anesthetized ventilated mice, AHR was assessed as previously described by measuring changes in the airway resistance (RL, cmH2O/ml/sec) and lung dynamic compliance (Cdyn, ml/cmH2O) after challenge with aerosolized methacholine (MCh, 0.78~25 mg/ml) using the FlexiVent system (SCIREQ, Montreal, Quebec, Canada). Anesthetized (urethane 600 mg/kg and chloralose 120 mg/kg, i.p.), tracheostomized (stainless-steel cannula, 18 G) mice were mechanically ventilated (at 150 breaths/min, with a tidal volume of 10 ml/kg, positive end-expiratory pressure of 3 cmH2O). (2) in unrestrained animals by barometric plethysmography using a whole-body plethysmograph (WBP) and analyzed using software of Life Science Suite P3 Analysis Modules (Gould, LDS Test and Measurement LLC, Valley View, OH, USA). Mice were placed into the main chamber of the WBP, and the baseline enhanced pause (Penh) value was determined. Then mice were first nebulized with phosphate-buffered saline (PBS), and subsequently with increasing doses (6.25~50 mg/ml) of MCh for 3 min for each nebulization, followed by readings of breathing parameters for 3 min after each nebulization to determine Penh values.
Twenty-four hours after Penh determination, these mice were anesthetized with pentobarbital (50 mg/kg, i.p.), and the lungs were lavaged via a tracheal tube with PBS (1 × 1.0 ml, 37°C). After lavage, blood was collected from the jugular vein and allowed to sit so that it would coagulate. The collected bronchoalveolar lavage fluid (BALF) and coagulated blood were respectively centrifuged at 630 g for 7 min and at 3700 g for 10 min at 4°C. After centrifugation, the BALF and serum supernatants were stored at -20°C until determination of cytokines, including interleukin (IL)-2, IL-4, IL-5, tumor necrosis factor (TNF)-α, and interferon (IFN)-γ by flow cytometric methods using mouse T helper (Th)1/Th2 cytokine CBA kits, and of total immunoglobulin (Ig)E or IgG2a using ELISA kits (Pharmingen, San Diego, CA, USA) according to the respective recommendations of the manufacturers. OVA-specific IgE was measured as described previously. Wells were coated with 100 μl of OVA (20 μg/ml) instead of the capture antibody. Levels are expressed in arbitrary units, where 1 arbitrary unit equals the optical density of the sample divided by the optical density of unchallenged mouse serum or BALF (standard). […] The number of inflammatory cells was counted using a hemocytometer (Hausser Scientific, Horsham, PA, USA). […]

SMILES: COc1cc(O)c2c(c1)O[C@H](c1ccc(OC)c(OC)c1)CC2=O [HDME, hesperetin-7,3'-O-dimethylether]
- mode of PDE4 inhibition (PDE4; Lineweaver-Burk analysis, inhibitor 1~10 μM): competitively inhibited
- Ki (PDE4; Lineweaver-Burk analysis, inhibitor 1~10 μM, substrate cAMP, read-out: dissociation constant for inhibitory binding (Ki), PDE4): 2100 ± 1300 nM
- IC50 (PDE4; homogenate of guinea pig lungs or hearts): 3000 ± 900 nM
- IC50 (PDE5): > 100000 nM
- effect on OVA-specific IgE level in the BALF [1]: dose-dependently and significantly suppressed
- effect on OVA-specific IgE level in the serum [1]: dose-dependently and significantly suppressed
- effect on total IgE level in the BALF [1]: dose-dependently and significantly suppressed
- effect on total IgE level in the serum [1]: dose-dependently and significantly suppressed
- effect on total IgG2a level in the serum [1]: dose-dependently and significantly enhanced
